Like-named read-outs stand apart in the source and are kept apart here.
Assays:
NDM-1 = NDM-1 (Klebsiella pneumoniae, UniProt C7C422); assay: biochemical; type: biochemical; conditions: read-out: NDM-1 IC50
IMP-1 = IMP-1 (Serratia marcescens, UniProt P52699); assay: biochemical; type: biochemical; conditions: read-out: IMP-1 IC50
VIM-1 = VIM-1 (Pseudomonas aeruginosa (strain ATCC 15692 / DSM 22644 / CIP 104116 / JCM 14847 / LMG 12228 / 1C / PRS 101 / PAO1), UniProt A0A0F7KYQ8); assay: Enzyme activity: determination of IC50, fluorescence assay with CCF2-FA substrate (VIM-1); type: biochemical
[1] = system: Escherichia coli expressing NDM-1 (CLB30016); assay: Antibiotic potentiation activity: synergistic concentration (MITC95) with imipenem, OD600 growth; type: cell-based
Summary of the method: (§1)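 Each strain, suspended in saline from overnight colonies and diluted 1:100 into 1.1× CAMHB, is dosed with imipenem at 4 μg/ml (or 1 μg/ml) plus compound, incubated 22–24 h at 35 °C and read by absorbance.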

[2] = system: Klebsiella pneumoniae expressing VIM-1 (IHMA599644); assay: as above; type: cell-based
Summary of the method: as §1

[3] = system: Serratia marcescens expressing IMP-1 (CL5741); assay: as above; type: cell-based
Summary of the method: as §1

[4] = NDM-1 enzyme, CCF2-FA substrate
[5] = IMP-1 enzyme, CCF2-FA substrate
[6] = VIM-1 enzyme, CCF2-FA substrate, read-out: VIM-1 IC50
[7] = (CLB30016, NDM-1), 95% growth inhibition
[8] = Klebsiella pneumoniae IHMA599644 (VIM-1), 95% growth inhibition
[9] = Serratia marcescens CL5741 (IMP-1), 95% growth inhibition
[10] = fluorescence assay with CCF2-FA substrate
[11] = fluorescence assay with CCF2-FA substrate, read-out: VIM-1 IC50
[12] = concentration giving 95% inhibition of bacterial growth
[13] = CLB30016 (NDM-1), 95% inhibition of bacterial growth
[14] = IHMA599644 (VIM-1), 95% inhibition of bacterial growth
[15] = CL5741 (IMP-1), 95% inhibition of bacterial growth
[16] = NDM-1 enzyme, CCF2-FA fluorescence assay
[17] = IMP-1 enzyme, CCF2-FA fluorescence assay
[18] = VIM-1 enzyme, CCF2-FA fluorescence assay, read-out: VIM-1 IC50
[19] = Escherichia coli expressing NDM-1 (CLB30016), 95% growth inhibition
[20] = Klebsiella pneumoniae expressing VIM-1 (IHMA599644), 95% growth inhibition
[21] = Serratia marcescens expressing IMP-1 (CL5741), 95% growth inhibition

Chain of NDM-1 (C7C422 whole entry, looked up, species assumed): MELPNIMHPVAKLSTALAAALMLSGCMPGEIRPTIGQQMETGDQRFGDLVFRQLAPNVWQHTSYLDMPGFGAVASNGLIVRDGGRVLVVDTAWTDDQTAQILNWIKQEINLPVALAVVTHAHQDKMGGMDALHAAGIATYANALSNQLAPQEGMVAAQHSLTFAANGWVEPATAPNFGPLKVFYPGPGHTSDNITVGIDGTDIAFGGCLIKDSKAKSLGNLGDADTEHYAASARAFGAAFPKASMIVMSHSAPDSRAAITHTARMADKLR
Chain of IMP-1 (P52699 whole entry, looked up): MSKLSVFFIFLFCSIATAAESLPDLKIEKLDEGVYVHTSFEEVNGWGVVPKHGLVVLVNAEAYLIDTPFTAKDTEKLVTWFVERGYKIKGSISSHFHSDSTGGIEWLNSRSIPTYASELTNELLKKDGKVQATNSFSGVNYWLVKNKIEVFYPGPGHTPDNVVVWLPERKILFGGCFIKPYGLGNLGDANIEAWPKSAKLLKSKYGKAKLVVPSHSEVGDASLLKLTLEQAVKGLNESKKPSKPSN

Structure (SMILES): NS(=O)(=O)c1c(C(F)(F)F)ccc(-c2cccc(N3CCCC(O)C3)c2)c1-c1nnn[nH]1 (stereo not drawn) [Example 739, 3′-(3-hydroxypiperidin-1-yl)-2-(1H-tetrazol-5-yl)-4-(trifluoromethyl)biphenyl-3-sulfonamide]
- IC50 (NDM-1; [4]): 3.84 nM
- IC50 (IMP-1; [5]): 6.82 nM
- IC50 (VIM-1; [6]): 2.77 nM
- Escherichia coli MITC95 [1, 7]: 25 µM
- Klebsiella pneumoniae MITC95 [2, 8]: >200 µM
- Serratia marcescens MITC95 [3, 9]: 25 µM

Structure (SMILES): CC(C)c1cccc(S(N)(=O)=O)c1-c1nnn[nH]1 [Example 156, 3-isopropyl-2-(1H-tetrazol-5-yl)benzenesulfonamide]
- IC50 (NDM-1; [10]): 13.1 nM
- IC50 (IMP-1; [10]): 508 nM
- IC50 (VIM-1; [11]): 391 nM
- Escherichia coli expressing NDM-1 (CLB 30016) MITC95 [1, 12]: 0.5859 µM
- Klebsiella pneumoniae expressing VIM-1 (IHMA 599644) MITC95 [2, 12]: 50 µM
- Serratia marcescens expressing IMP-1 (CL5741) MITC95 [3, 12]: 9.375 µM

Structure (SMILES): NS(=O)(=O)c1c(CC2CCN(CCO)CC2)ccc(-c2ccc(C3CNC3)cc2)c1-c1nn[nH]n1 [Example 607, 3-[4-(azetidin-3-yl)phenyl]-6-[[1-(2-hydroxyethyl)-4-piperidyl]methyl]-2-(2H-tetrazol-5-yl)benzenesulfonamide]
- IC50 (NDM-1; [4]): 11.3 nM
- IC50 (IMP-1; [5]): 42.2 nM
- IC50 (VIM-1; [6]): 2.07 nM
- Escherichia coli MITC95 [1, 7]: 1.563 µM
- Klebsiella pneumoniae MITC95 [2, 8]: 1.563 µM
- Serratia marcescens MITC95 [3, 9]: 3.125 µM

Structure (SMILES): NCCCN1CC(c2ccc(-c3ccc(C(F)(F)F)c(S(N)(=O)=O)c3-c3nnn[nH]3)cc2)C1 [Example 816, 4′-[1-(3-aminopropyl)azetidin-3-yl]-2-(1H-tetrazol-5-yl)-4-(trifluoromethyl)biphenyl-3-sulfonamide]
- IC50 (NDM-1; [10]): 6.62 nM
- IC50 (IMP-1; [10]): 16.3 nM
- IC50 (VIM-1; [11]): 13.5 nM
- Escherichia coli MITC95 [1, 13]: 1.563 µM
- Klebsiella pneumoniae MITC95 [2, 14]: 12.5 µM
- Serratia marcescens MITC95 [3, 15]: 6.25 µM

Structure (SMILES): Nc1ccc(-c2ccc(C(F)(F)F)c(S(N)(=O)=O)c2-c2nnn[nH]2)nc1 [Example 562, 3-(5-aminopyridin-2-yl)-2-(1H-tetrazol-5-yl)-6-(trifluoromethyl)benzenesulfonamide]
- IC50 (NDM-1; [4]): 5 nM
- IC50 (IMP-1; [5]): 7.55 nM
- IC50 (VIM-1; [6]): 2.35 nM
- Escherichia coli MITC95 [1, 7]: 0.5859 µM
- Klebsiella pneumoniae MITC95 [2, 8]: 3.125 µM
- Serratia marcescens MITC95 [3, 9]: 0.3906 µM

Structure (SMILES): NS(=O)(=O)c1cccc(-c2cc3ccncc3s2)c1-c1nnn[nH]1 [Example 410, 2-(1H-tetrazol-5-yl)-3-thieno[2,3-c]pyridin-2-yl-benzenesulfonamide]
- IC50 (NDM-1; [16]): 4.11 nM
- IC50 (IMP-1; [17]): 107 nM
- IC50 (VIM-1; [18]): 19.2 nM
- Escherichia coli MITC95 [1, 19]: 0.5859 µM
- Klebsiella pneumoniae MITC95 [2, 20]: 18.75 µM
- Serratia marcescens MITC95 [3, 21]: 3.125 µM

Structure (SMILES): NS(=O)(=O)c1c(C[C@H]2CC[C@@H](N)CC2)ccc(-c2ccc(C3CNC3)cc2)c1-c1nnn[nH]1 [Example 596, 4-(((1s,4s)-4-aminocyclohexyl)methyl)-4′-(azetidin-3-yl)-2-(1H-tetrazol-5-yl)-[1,1′-biphenyl]-3-sulfonamide]
- IC50 (NDM-1; [4]): 4.38 nM
- IC50 (IMP-1; [5]): 10.6 nM
- IC50 (VIM-1; VIM-1 IC50, VIM-1 enzyme, CCF2-FA substrate): 7.46 nM
- Escherichia coli MITC95 [1, 7]: 0.7813 µM
- Klebsiella pneumoniae MITC95 [2, 8]: 1.563 µM
- Serratia marcescens MITC95 [3, 9]: 1.563 µM

Structure (SMILES): CNCc1ccc(-c2cccc(S(N)(=O)=O)c2-c2nnn[nH]2)cc1 [Example 334, 4′-((methylamino)methyl)-2-(1H-tetrazol-5-yl)-[1,1′-biphenyl]-3-sulfonamide]
- IC50 (NDM-1; [16]): 10.6 nM
- IC50 (IMP-1; [17]): 385 nM
- IC50 (VIM-1; [18]): 129 nM
- Escherichia coli MITC95 [1, 19]: 0.3906 µM
- Klebsiella pneumoniae MITC95 [2, 20]: 9.375 µM
- Serratia marcescens MITC95 [3, 21]: 3.125 µM

Structure (SMILES): Nc1nc2ccc(-c3ccc(CC4CCNCC4)c(S(N)(=O)=O)c3-c3nn[nH]n3)cc2[nH]1 [Example 610, 3-(2-amino-3H-benzo[d]imidazol-5-yl)-6-(piperidin-4-ylmethyl)-2-(2H-tetrazol-5-yl)benzenesulfonamide]
- IC50 (NDM-1; [4]): 2.92 nM
- IC50 (IMP-1; [5]): 114 nM
- IC50 (VIM-1; [6]): 6.39 nM
- Escherichia coli MITC95 [1, 7]: 0.3906 µM
- Klebsiella pneumoniae MITC95 [2, 8]: 1.563 µM
- Serratia marcescens MITC95 [3, 9]: 3.125 µM

Structure (SMILES): NS(=O)(=O)c1c(C(F)(F)F)ccc(-c2ccc(N3CCC(O)CC3)cc2)c1-c1nnn[nH]1 [Example 740, 4′-(4-hydroxypiperidin-1-yl)-2-(1H-tetrazol-5-yl)-4-(trifluoromethyl)biphenyl-3-sulfonamide]
- IC50 (NDM-1; [4]): 0.229 nM
- IC50 (IMP-1; [5]): 0.456 nM
- IC50 (VIM-1; [6]): 1.15 nM
- Escherichia coli MITC95 [1, 7]: 6.25 µM
- Klebsiella pneumoniae MITC95 [2, 8]: 50 µM
- Serratia marcescens MITC95 [3, 9]: 6.25 µM

Structure (SMILES): NS(=O)(=O)c1c(C(F)(F)F)ccc(N2CCC3(CCNCC3)C2)c1-c1nnn[nH]1 [Example 771, 3-(2,8-diazaspiro[4.5]dec-2-yl)-2-(1H-tetrazol-5-yl)-6-(trifluoromethyl) benzenesulfonamide]
- IC50 (NDM-1; [10]): 30.7 nM
- IC50 (IMP-1; [10]): 227 nM
- IC50 (VIM-1; [11]): 22.9 nM
- Escherichia coli MITC95 [1, 13]: 25 µM
- Klebsiella pneumoniae MITC95 [2, 14]: 50 µM
- Serratia marcescens MITC95 [3, 15]: 50 µM

Structure (SMILES): Cc1ccc(-c2ccc(Br)c(S(N)(=O)=O)c2-c2nn[nH]n2)cc1 [Example 267, 4-bromo-4′-methyl-2-(2H-tetrazol-5-yl)-[1,1′-biphenyl]-3-sulfonamide]
- IC50 (NDM-1; [16]): 1.81 nM
- IC50 (IMP-1; [17]): 2 nM
- IC50 (VIM-1; [18]): 2.95 nM
- Escherichia coli MITC95 [1, 19]: 0.7383 µM
- Klebsiella pneumoniae MITC95 [2, 20]: 6.25 µM
- Serratia marcescens MITC95 [3, 21]: 0.2552 µM

Structure (SMILES): Nc1ccnc2cc(-c3cccc(S(N)(=O)=O)c3-c3nnn[nH]3)ccc12 [Example 412, 3-(4-amino-7-quinolyl)-2-(1H-tetrazol-5-yl)benzenesulfonamide]
- IC50 (NDM-1; [16]): 25.9 nM
- IC50 (IMP-1; [17]): 1390 nM
- IC50 (VIM-1; [18]): 25.8 nM
- Escherichia coli MITC95 [1, 19]: 0.3906 µM
- Klebsiella pneumoniae MITC95 [2, 20]: 3.125 µM
- Serratia marcescens MITC95 [3, 21]: 25 µM

Structure (SMILES): NS(=O)(=O)c1c(C(F)(F)F)ccc(-c2cnc3ccccn23)c1-c1nnn[nH]1 [Example 748, 3-imidazo[1,2-a]pyridin-3-yl-2-(1H-tetrazol-5-yl)-6-(trifluoromethyl)benzenesulfon-amide]
- IC50 (NDM-1; [10]): 0.833 nM
- IC50 (IMP-1; [10]): 1.25 nM
- IC50 (VIM-1; VIM-1 IC50, fluorescence assay with CCF2-FA substrate): 0.248 nM
- Escherichia coli MITC95 [1, 13]: 0.7813 µM
- Klebsiella pneumoniae MITC95 [2, 14]: 6.25 µM
- Serratia marcescens MITC95 [3, 15]: 6.25 µM

Structure (SMILES): NC[C@H]1CC[C@H](c2ccc(CC3CCNCC3)c(S(N)(=O)=O)c2-c2nn[nH]n2)CC1 [Example 590, 3-((1r,4r)-4-(aminomethyl)cyclohexyl)-6-(piperidin-4-ylmethyl)-2-(2H-tetrazol-5-yl)benzenesulfonamide]
- IC50 (NDM-1; [4]): 8.27 nM
- IC50 (IMP-1; [5]): 24.5 nM
- IC50 (VIM-1; [6]): 8.35 nM
- Escherichia coli MITC95 [1, 7]: 1.172 µM
- Klebsiella pneumoniae MITC95 [2, 8]: 2.344 µM
- Serratia marcescens MITC95 [3, 9]: 2.344 µM

Structure (SMILES): NS(=O)(=O)c1c(C(F)(F)F)ccc(C2CCCC2)c1-c1nnn[nH]1 [Example 490, 3-cyclopentyl-2-(1H-tetrazol-5-yl)-6-(trifluoromethyl)benzenesulfonamide]
- IC50 (NDM-1; [16]): 2.57 nM
- IC50 (IMP-1; [17]): 5.61 nM
- IC50 (VIM-1; [18]): 2.35 nM
- Escherichia coli MITC95 [1, 19]: 1.281 µM
- Klebsiella pneumoniae MITC95 [2, 20]: 9.375 µM
- Serratia marcescens MITC95 [3, 21]: 0.375 µM

Structure (SMILES): NCc1nccc2cc(-c3cccc(S(N)(=O)=O)c3-c3nn[nH]n3)ccc12 [Example 280, 3-(1-(aminomethyl)isoquinolin-6-yl)-2-(2H-tetrazol-5-yl)benzenesulfonamide]
- IC50 (NDM-1; [16]): 1.44 nM
- IC50 (IMP-1; [17]): 15.8 nM
- IC50 (VIM-1; VIM-1 IC50, VIM-1 enzyme, CCF2-FA fluorescence assay): 20.4 nM
- Escherichia coli MITC95 [1, 19]: 0.5859 µM
- Klebsiella pneumoniae MITC95 [2, 20]: 3.125 µM
- Serratia marcescens MITC95 [3, 21]: 6.25 µM

Structure (SMILES): Nc1nc2cccc(-c3ccc(C(F)(F)F)c(S(N)(=O)=O)c3-c3nnn[nH]3)c2s1 [Example 553, 3-(2-amino-1,3-benzothiazol-7-yl)-2-(1H-tetrazol-5-yl)-6-(trifluoromethyl)benzenesulfonamide]
- IC50 (NDM-1; [4]): 0.0499 nM
- IC50 (IMP-1; [5]): 0.959 nM
- IC50 (VIM-1; [6]): 0.0624 nM
- Escherichia coli MITC95 [1, 7]: 3.125 µM
- Klebsiella pneumoniae MITC95 [2, 8]: 3.125 µM
- Serratia marcescens MITC95 [3, 9]: 3.125 µM

Structure (SMILES): NS(=O)(=O)c1c(C(F)(F)F)ccc([C@H]2CC[C@H](NC3CCNCC3)CC2)c1-c1nnn[nH]1 [Example 698, 3-[4-(piperidin-4-ylamino)cyclohexyl]-2-(1H-tetrazol-5-yl)-6-(trifluoromethyl)benzene sulfonamide]
- IC50 (NDM-1; [4]): 10 nM
- IC50 (IMP-1; [5]): 29.6 nM
- IC50 (VIM-1; [6]): 6.52 nM
- Escherichia coli MITC95 [1, 7]: 0.7813 µM
- Klebsiella pneumoniae MITC95 [2, 8]: 3.125 µM
- Serratia marcescens MITC95 [3, 9]: 3.125 µM
